Test results as given in US7531500B2, “Preventing airway mucus production by administration of EGF-R antagonists” (The Regents of the University of California, priority 1998, dated 2009).

What was measured:
EGFR = EGFR (Homo sapiens, UniProt P00533); test: Immunoblotting for activated EGFR in NCI-H292 cells; type: cell-based; design: NCI-H292 cells expressed EGSR mRNA constitutively; endogenous in cells; host or cells: NCI-H292 (human pulmonary mucoepidermoid carcinoma); settings: stimulated 15 minutes
Procedure: Cells were serum-starved for 24 hours and then stimulated with cigarette smoke solution or with TGFα for 15 minutes. After stimulation, cells were lysed with lysis buffer (20 mM sodium phosphate, pH 7.8, 150 mM NaCl, 5 mM EDTA, 50 mM HEPES, 1% Triton-X100, 50 mM NaF, 1 mM sodium orthovanadate, 5 mM PMSF, and 10 μg/ml each of leupeptin and aprotinin) and incubated for 30 minutes at 4° C. To remove insoluble materials, cell lysates were centrifuged at 14,000 rpm for 5 minutes at 4° C. Aliquots of supernatants containing equal amounts of protein were suspended in SDS sample buffer and boiled for 5 minutes. Proteins were separated by SDS-PAGE in 4-15% acrylamide gel. The resulting gel was equilibrated in the transfer buffer: 25 mM Tris-HCl, 192 mM glycine, 20% (vol/vol) methanol, pH 8.3. The proteins were then transferred electrophoretically to nitrocellulose membranes, which were incubated with 5% fat-free skimmed milk in PBS containing 0.05% Tween 20 for 1 hour and then incubated with anti-phospho-specific EGFR mAb (2 μg/ml, Calbiochem) overnight. Bound Ab was visualized according to a standard protocol for the avidin-biotin-alkaline phosphatase complex method (ABC kit, Vector Laboratories, Burlingame, Calif.).

NCI-H292 cells [1] = test: Northern analysis for MUC5 gene expression in NCI-H292 cells; type: cell-based, human; settings: EGF or TGFα 25 ng/ml, TNFα 20 ng/ml; 12 h, 24 h
Procedure: Cell culture. A human pulmonary mucoepidermoid carcinoma cell line, NCI-H292 cells, were grown in RPMI11640 medium containing 10% fetal bovine serum, penicillin (100 U/ml), streptomycin (100 μg/ml) at 37° C. in a humidified 5% CO2 water-jacketed incubator. […] In inhibition studies with an EGF-R tyrosine kinase inhibitor, BIBX1522 (10 μg/ml, generously provided by Boehringer Ingelheim Inc., Ingelheim, Germany), cells were pretreated with BIBX1522 30 min before adding growth factors. After incubation, cells grown in a T-75 flask were used for total RNA extraction or protein extraction, and 8-chamber slides were used for Alcian blue/PAS-staining to visualize mucins.

NCI-H292 cells [2] = test: MUC5AC mRNA and protein in NCI-H292 cells incubated with cigarette smoke solution (Example 7); type: cell-based, human; settings: within 6 hours, increased at 12 hours
Procedure: NCI-H292 cells, a human pulmonary mucoepidermoid carcinoma cell line, were grown in RPMI 1640 medium containing 10% fetal bovine serum, penicillin (100 U/ml), streptomycin (100 μg/ml) and Hepes (25 mM) at 37° C. in a humidified 5% CO2 water-jacketed incubator. Either 6-well culture plates or 8-chamber slides were used to culture the cells. When confluent, cells were incubated for 1 hour with cigarette smoke solution. The cells were then washed and incubated with fresh medium alone. Experiments were terminated at preselected times (for mRNA, 6 hours and 12 hours; for protein, 24 hours). As controls, cells were incubated with medium alone for same time periods. […] The effects of a selective inhibitor of platelet-derived growth factor receptor tyrosine kinase (tyrphostin AG1295, 100 μM, Calbiochem), and a negative control for tyrphostins (tyrphostin A1, 100 μM, Calbiochem) were also examined. The role of reactive oxygen species was examined using a scavenger of oxygen free radicals DMSO (1%, Sigma), or superoxide dismutase (SOD, 300 U/ml, Sigma).
In situ hybridization was performed using a human EGFR probe, which contains a 350-bp cDNA fragment of the human EGFR gene (pTRI-EGFR-human probe template, Ambion, Austin, Tex.) and a human MUC5AC probe, which contains a 298-bp cDNA fragment of the human MUC5AC gene, The 350-bp cDNA human EGFR was subcloned into pBluescript II SK-vector at Kpn I and EcoR I sites. This pBluescript was used to generate human EGFR antisense and sense probes. Hybridization was performed as described previously. Lou et al. (1998) Am. J. Respir. Crit. Care Med. 157:1927-1934. In brief, the cells grown on the 8-chamber slides were fixed in 4% paraformaldehyde, rehydrated in 0.5×SSC, and then acetylated in triethanolamine and acetic anhydride. Hybridization was carried out with 2500-4000 cpm/μl of antisense or sense probe in 50% deionized formamide, 0.3 M NaCl, 20 mM Tris, 5 mM EDTA, 1× Denhardt's solution, 20 mM dithiothreitol, 10% dextran sulfate, 0.5 mg/ml yeast tRNA, and 0.5 mg/ml sonicated salmon sperm DNA at 58° overnight. Posthybridization treatment consisted of washes with 2×SSC, 1 mM EDTA, 10 mM β-mercaptoethanol at room temperature, incubation with RNase solution (20 μg/ml) for 30 min at room temperature, and further washes in 0.1×SSC, 1 mM EDTA, 10 mM β-mercaptoethanol at 55° C. for 2 hours and then in 0.5×SSC at room temperature for 20 minutes. Specimens were dehydrated, air-dried, and covered with Kodak NBT nuclear track emulsion (Eastman Kodak, Rochester, N.Y.) for autoradiography. After exposure for 7 to 21 days at 4° C., the slides were developed, fixed, and counterstained with hematoxylin.
MUC5AC protein was measured as described previously. Takeyama et al. (1999) Proc. Natl. Acad. Sci. USA 96:3081-3086. In brief, cell lysates were prepared with PBS at multiple dilutions, and 50 μl of each sample was incubated with bicarbonate-carbonate buffer (50 μl) at 40° C. in a 96-well plate (Maxisorp Nunc, Fisher Scientific, Santa Clara, Calif.), until dry. Plates were washed three times with PBS and blocked with 2% bovine serum albumin, fraction V (Sigma) for 1 hour at room temperature. Plates were again washed three times with PBS and then incubated with 50 μl of MUC5AC mAb (1:1 00) that was diluted with PBS containing 0.05% Tween 20. After 1 hour, the wells were washed three times with PBS, and 100 μl horseradish peroxidase-goat anti-mouse IgG conjugate (1:10,000) was dispensed into each well. After 1 hour, plates were washed three times with PBS. Color reaction was developed with 3,3′,5,5′-tetramethylbenzidine (TMB) peroxidase solution (Kirkegaard & Perry Laboratories, Gaithersburg, Md.) and stopped with 2N H2S04. Absorbance was read at 450 nm.

EGFR-specific tyrosine phosphorylation (EGFR): increased
Substance: TGFα: transforming growth factor alpha, EGF-R ligand (recombinant human; rat synthetic in vivo)
MUC5 gene expression on incubation with mediator (NCI-H292 cells [1]): clearly expressed at 24 h | MUC5AC mRNA expression (NCI-H292 cells [2]): increased
